# Results reported in PMC6987146, “Potent inhibition of HIV replication in primary human cells by novel synthetic polyketides inspired by Aureothin” (Scientific Reports, 2020).
# What was measured:
# HIV-1MMVP899-87 = test: Inhibition of clinical isolate HIV-1M MVP899-87 in PBMCs; assay type: cell-based; settings: PBMC
# Source text: (§1) Clinical isolates represented the following HIV genotypes: HIV-1MMVP899-87: HIV-type 1, Major group; HIV-1OMVP5180-91: HIV-type 1, Outlier group; HIV-2MVP10668-93: HIV-type 2; HIV-1V13-03413B: HIV-type 1, Major group/B-clade, isolate with multiple drug-resistance mutations. Depicted are the means of three independent experiments with biological triplicates (n = 3; m = 3) and standard deviations (SD).
# (§2) Isolation of primary clinical HIV-isolates HIV-1MMVP899-87, HIV-1OMVP5180-91, HIV-1V13-03413B and HIV-2MVP10668-93 is described in[43]. The HIV-1 M group/B-clade isolate (HIV-1V13-03413B) was isolated from a patient with virological treatment failure. Clinical isolates were produced from HIV infected H9 cells as described.
# (§3) To evaluate anti-HIV efficacies of test compounds in primary human target cells, stimulated PBMCs were seeded in 96-well plates at a density of 500,000 cells per well, different #7concentrations of the compound (serial dilutions) and virus inoculum (MOI of 0.5) added to the PBMCs and cultures incubated for 48 h. Infectious virus production was quantified by transferring 35 µl of supernatant from the PBMC cultures to LC5-RIC cells, seeded in black 96-well plates one day earlier. LC5-RIC cultures were then incubated for 72 h and analysed for DsRed1 reporter expression and anti-HIV activity calculated as described for the EASY-HIT assay.
# HIV-1LAI = test: Photostability of anti-HIV activity (24 h illumination vs dark, EASY-HIT read-out); assay type: cell-based; settings: 24 h illumination vs same compound kept in the dark; compounds at IC90; LC5-RIC
# Procedure: Figure 1 Profiling of photostability of anti-HIV activity of Aureothin and synthetic Aureothin-derivatives. Anti-HIV activity of compound samples illuminated for 24 h were normalised to anti-HIV activity of samples of the same compound kept in the dark. Anti-HIV activity was measured by quantifying the amounts of infectious virus produced by HIV-1LAI exposed LC5-RIC cells treated with compounds at IC90 concentrations (Supplementary Table S1). […] Shown are means of at least three independent experiments with biological triplicates (n ≥ 3; m = 3) and the standard error of the mean (SEM) indicated.
# LC5-RIC cells were plated as described for the EASY-HIT assay. […] Plates were incubated either in the dark or under constant illumination with a commercially available desk lamp (2X Philips Master PL-S-9W/840/2 P, 30 cm between light source and compounds) for 24 h at room temperature. For analysis of anti-HIV activity, compound samples were transferred to LC5-RIC cells and their anti-HIV activity determined by measuring compound effects on infectious virus production with the EASY-HIT assay. Relative photostability was calculated by normalizing the anti-HIV activity of the illuminated compounds to the antiviral activity of compounds kept in the dark.
# HIV-1V13-03413B = test: Inhibition of multi-drug-resistant clinical isolate HIV-1 V13-03413B in PBMCs; assay type: cell-based, HIV-type 1; settings: Human immunodeficiency virus 1, PBMC
# Source text: as §1, §2, §3
# PBMC = test: CellTiter-Glo 2.0 cell viability assay in PBMC; assay type: cell-based, human; settings: PBMC
# Procedure: The following assays were used to profile cell safety of compound treatment in HIV-exposed cultures (LC5-RIC or PBMC): (1) CellTox^TM Green Cytotoxicity Assay, Promega, measures binding of a fluorescent dye to DNA of cells with impaired membrane integrity; (2) CellTiter-Glo® 2.0 Assay, Promega, which measures the amount of ATP in viable cells after lysis using an assay with luminescence read-out. Cells were plated into black 96-well plates followed by overnight incubation at 37 °C, 5% CO2. Compounds dissolved in DMSO were screened at multiple concentrations from 0.6 to 10,000 nM at a final DMSO concentration of 0.04% followed by additional 48 h incubation. Both assays were performed according to manufacturer’s recommendations and consecutively in the above mentioned order. Cells were washed once with PBS between the assays.
# HIV-1OMVP5180-91 = test: Inhibition of clinical isolate HIV-1O MVP5180-91 in PBMCs; assay type: cell-based; settings: PBMC, HIV-type 1, Outlier group
# Source text: as §1, §2, §3
# PBMC proteome = test: Proteomics (LC-MSMS) of PBMCs treated with compound #7, with or without HIV exposure; assay type: cell-based, human; settings: PBMCs from three donors; ≥2-fold change
# Procedure: Stimulated PBMCs or CD4+ cells (5,000,000 cells) were seeded into 12-well plates before compound treatment and inoculation with HIV-1LAI at an MOI of 0.5, followed by 48 h incubation at 37 °C, 5% CO2. HIV inhibition was confirmed by quantifying infectious virus production in LC5-RIC cells as described above. Protein lysates were prepared from cells harvested, washed with PBS and lysed by incubating the cells for 10 min at 4 °C in lysis buffer (100 mM Tris-HCl pH 8.3, 150 mM NaCl, 1% glycerol, 1% NP-40, 0.5% deoxycholate, 0.1% SDS, 0.1% Triton-X100) and centrifuged for 20 min at 4 °C, 16,000 g to clear protein lysates. Protein concentrations were determined by using the Pierce^TM BCA Protein Assay Kit (ThermoFisher Scientific) according to manufacturer’s protocol. The proteomes of PBMCs from three different donors were analysed by LC-MSMS and data enrichment analysis was carried out using GeneRanker (Intrexon). For detailed information see Supplementary Methods.
# After measuring the protein concentration of the cell lysates equal total protein amounts (10 µg per sample) were proteolysed with trypsin as described ^4 by a modified filter-aided sample preparation (FASP) procedure ^5.
# Data analysis. The results from three donors were regarded as biological replicates. […]
structure (smiles),measurement,setting,value
COc1oc(C2C/C(=C/C(C)=C/c3ccc(C(F)(F)F)cc3)CO2)c(C)c(=O)c1C (stereo not drawn) [compound #7],IC50,"HIV-1MMVP899-87; read-out: IC50 value, HIV-1M MVP899-87, HIV-type 1, Major group",4.11 nM
same,IC90,"HIV-1MMVP899-87; read-out: IC90 value, HIV-1M MVP899-87, HIV-type 1, Major group",12.3 nM
same,anti-HIV activity retained after exposure to light,HIV-1LAI,over 95%
same,IC50,"HIV-1V13-03413B; read-out: IC50 value, HIV-1 V13-03413B",4.2 nM
same,IC90,"HIV-1V13-03413B; read-out: IC90 value, HIV-1 V13-03413B",10.5 nM
same,selectivity index (CC50/IC50),PBMC,> 970
same,IC50,HIV-1OMVP5180-91,2.88 nM
same,IC90,HIV-1OMVP5180-91,8.65 nM
same,proportion of differentially expressed proteins (of total proteins detected),PBMC proteome,< 10%
